Laboratory results: the NIST ThermoML archive (doi:10.1021/je500395f)
± gives the expanded uncertainty stated by the source.

Conditions: Fluid (supercritical or subcritical phases), Coaxial cylinder method

## CCC [propane]
370.45 K, 3452 kPa
  thermal conductivity: 0.03558 ± 0.0016 W/m/K
370.45 K, 3487 kPa
  thermal conductivity: 0.0359 ± 0.0016 W/m/K
370.45 K, 3770 kPa
  thermal conductivity: 0.03805 ± 0.0017 W/m/K
370.45 K, 3856 kPa
  thermal conductivity: 0.03938 ± 0.0017 W/m/K
370.45 K, 3986 kPa
  thermal conductivity: 0.04204 ± 0.0018 W/m/K
370.45 K, 4042 kPa
  thermal conductivity: 0.04385 ± 0.0019 W/m/K
370.45 K, 4105 kPa
  thermal conductivity: 0.04623 ± 0.0019 W/m/K
370.45 K, 4170 kPa
  thermal conductivity: 0.05102 ± 0.0021 W/m/K
370.45 K, 4190 kPa
  thermal conductivity: 0.05329 ± 0.0023 W/m/K
370.45 K, 4200 kPa
  thermal conductivity: 0.055 ± 0.0024 W/m/K
370.45 K, 4205 kPa
  thermal conductivity: 0.05577 ± 0.0024 W/m/K
370.45 K, 4217 kPa
  thermal conductivity: 0.05902 ± 0.0026 W/m/K
370.45 K, 4224 kPa
  thermal conductivity: 0.06133 ± 0.0026 W/m/K
370.45 K, 4227 kPa
  thermal conductivity: 0.06249 ± 0.0028 W/m/K
370.45 K, 4232 kPa
  thermal conductivity: 0.06383 ± 0.0029 W/m/K
370.45 K, 4241 kPa
  thermal conductivity: 0.06723 ± 0.0033 W/m/K
370.45 K, 4244 kPa
  thermal conductivity: 0.06856 ± 0.004 W/m/K
370.45 K, 4245 kPa
  thermal conductivity: 0.06879 ± 0.0027 W/m/K
370.45 K, 4250 kPa
  thermal conductivity: 0.07121 ± 0.0044 W/m/K
370.45 K, 4255 kPa
  thermal conductivity: 0.0743 ± 0.0044 W/m/K
370.45 K, 4260 kPa
  thermal conductivity: 0.0774 ± 0.0047 W/m/K
370.45 K, 4265 kPa
  thermal conductivity: 0.08106 ± 0.0042 W/m/K
370.45 K, 4270 kPa
  thermal conductivity: 0.08804 ± 0.0041 W/m/K
370.45 K, 4275 kPa
  thermal conductivity: 0.09622 ± 0.0044 W/m/K
370.45 K, 4280 kPa
  thermal conductivity: 0.1118 ± 0.005 W/m/K
370.45 K, 4285 kPa
  thermal conductivity: 0.1252 ± 0.0054 W/m/K
370.45 K, 4290 kPa
  thermal conductivity: 0.1423 ± 0.006 W/m/K
370.45 K, 4295 kPa
  thermal conductivity: 0.156 ± 0.0065 W/m/K
370.45 K, 4300 kPa
  thermal conductivity: 0.1452 ± 0.0058 W/m/K
370.45 K, 4305 kPa
  thermal conductivity: 0.1291 ± 0.005 W/m/K
370.45 K, 4310 kPa
  thermal conductivity: 0.1181 ± 0.0046 W/m/K
370.45 K, 4315 kPa
  thermal conductivity: 0.1061 ± 0.0041 W/m/K
370.45 K, 4320 kPa
  thermal conductivity: 0.101 ± 0.0039 W/m/K
370.45 K, 4325 kPa
  thermal conductivity: 0.09628 ± 0.0036 W/m/K
370.45 K, 4330 kPa
  thermal conductivity: 0.09201 ± 0.0035 W/m/K
370.45 K, 4335 kPa
  thermal conductivity: 0.08809 ± 0.0035 W/m/K
370.45 K, 4340 kPa
  thermal conductivity: 0.08122 ± 0.0036 W/m/K
370.45 K, 4345 kPa
  thermal conductivity: 0.07814 ± 0.0038 W/m/K
370.45 K, 4350 kPa
  thermal conductivity: 0.07669 ± 0.0033 W/m/K
370.45 K, 4355 kPa
  thermal conductivity: 0.07528 ± 0.0032 W/m/K
370.45 K, 4360 kPa
  thermal conductivity: 0.07393 ± 0.003 W/m/K
370.45 K, 4377 kPa
  thermal conductivity: 0.07217 ± 0.0029 W/m/K
370.45 K, 4400 kPa
  thermal conductivity: 0.07099 ± 0.0028 W/m/K
370.45 K, 4420 kPa
  thermal conductivity: 0.07014 ± 0.0027 W/m/K
370.45 K, 4560 kPa
  thermal conductivity: 0.06814 ± 0.0026 W/m/K
370.45 K, 4580 kPa
  thermal conductivity: 0.06769 ± 0.0026 W/m/K
370.45 K, 4800 kPa
  thermal conductivity: 0.06654 ± 0.0026 W/m/K
370.45 K, 5000 kPa
  thermal conductivity: 0.06717 ± 0.0026 W/m/K
370.45 K, 5500 kPa
  thermal conductivity: 0.06784 ± 0.0026 W/m/K
370.45 K, 5550 kPa
  thermal conductivity: 0.06791 ± 0.0026 W/m/K
370.45 K, 5760 kPa
  thermal conductivity: 0.06812 ± 0.0026 W/m/K
370.45 K, 6000 kPa
  thermal conductivity: 0.06874 ± 0.0027 W/m/K
370.45 K, 6500 kPa
  thermal conductivity: 0.06997 ± 0.0027 W/m/K
370.45 K, 7000 kPa
  thermal conductivity: 0.07091 ± 0.0027 W/m/K
370.45 K, 7500 kPa
  thermal conductivity: 0.07178 ± 0.0028 W/m/K
370.45 K, 8000 kPa
  thermal conductivity: 0.07277 ± 0.0028 W/m/K
370.45 K, 8500 kPa
  thermal conductivity: 0.07381 ± 0.0028 W/m/K
370.45 K, 9000 kPa
  thermal conductivity: 0.07421 ± 0.0028 W/m/K
370.45 K, 9500 kPa
  thermal conductivity: 0.07545 ± 0.0029 W/m/K
370.45 K, 10000 kPa
  thermal conductivity: 0.07572 ± 0.0029 W/m/K
370.45 K, 10500 kPa
  thermal conductivity: 0.07624 ± 0.0029 W/m/K
370.45 K, 11000 kPa
  thermal conductivity: 0.07677 ± 0.0029 W/m/K
370.45 K, 11200 kPa
  thermal conductivity: 0.07735 ± 0.0029 W/m/K
370.45 K, 11300 kPa
  thermal conductivity: 0.07645 ± 0.0029 W/m/K
370.45 K, 15100 kPa
  thermal conductivity: 0.08094 ± 0.0031 W/m/K
371.05 K, 2710 kPa
  thermal conductivity: 0.03205 ± 0.0015 W/m/K
371.05 K, 3100 kPa
  thermal conductivity: 0.03344 ± 0.0015 W/m/K
371.05 K, 3375 kPa
  thermal conductivity: 0.03463 ± 0.0016 W/m/K
371.05 K, 3655 kPa
  thermal conductivity: 0.03745 ± 0.0017 W/m/K
371.05 K, 3900 kPa
  thermal conductivity: 0.04056 ± 0.0018 W/m/K
371.05 K, 4095 kPa
  thermal conductivity: 0.04417 ± 0.0019 W/m/K
371.05 K, 4155 kPa
  thermal conductivity: 0.04633 ± 0.002 W/m/K
371.05 K, 4215 kPa
  thermal conductivity: 0.04915 ± 0.0021 W/m/K
371.05 K, 4235 kPa
  thermal conductivity: 0.0519 ± 0.0022 W/m/K
371.05 K, 4252 kPa
  thermal conductivity: 0.05394 ± 0.0024 W/m/K
371.05 K, 4265 kPa
  thermal conductivity: 0.05669 ± 0.0026 W/m/K
371.05 K, 4276 kPa
  thermal conductivity: 0.05854 ± 0.0028 W/m/K
371.05 K, 4284 kPa
  thermal conductivity: 0.06121 ± 0.0033 W/m/K
371.05 K, 4289 kPa
  thermal conductivity: 0.06357 ± 0.0037 W/m/K
371.05 K, 4295 kPa
  thermal conductivity: 0.06602 ± 0.0041 W/m/K
371.05 K, 4301 kPa
  thermal conductivity: 0.06867 ± 0.0039 W/m/K
371.05 K, 4308 kPa
  thermal conductivity: 0.07332 ± 0.0036 W/m/K
371.05 K, 4313 kPa
  thermal conductivity: 0.07659 ± 0.0034 W/m/K
371.05 K, 4318 kPa
  thermal conductivity: 0.08141 ± 0.0035 W/m/K
371.05 K, 4319 kPa
  thermal conductivity: 0.08406 ± 0.0036 W/m/K
371.05 K, 4322 kPa
  thermal conductivity: 0.08836 ± 0.0037 W/m/K
371.05 K, 4324 kPa
  thermal conductivity: 0.09107 ± 0.0037 W/m/K
371.05 K, 4325 kPa
  thermal conductivity: 0.09395 ± 0.0037 W/m/K
371.05 K, 4326 kPa
  thermal conductivity: 0.09568 ± 0.0038 W/m/K
371.05 K, 4328 kPa
  thermal conductivity: 0.09934 ± 0.0039 W/m/K
371.05 K, 4329 kPa
  thermal conductivity: 0.1013 ± 0.0039 W/m/K
371.05 K, 4331 kPa
  thermal conductivity: 0.1054 ± 0.0041 W/m/K
371.05 K, 4332 kPa
  thermal conductivity: 0.1075 ± 0.0041 W/m/K
371.05 K, 4334 kPa
  thermal conductivity: 0.1104 ± 0.0042 W/m/K
371.05 K, 4336 kPa
  thermal conductivity: 0.114 ± 0.0043 W/m/K
371.05 K, 4337 kPa
  thermal conductivity: 0.1159 ± 0.0043 W/m/K
371.05 K, 4338 kPa
  thermal conductivity: 0.1172 ± 0.0043 W/m/K
371.05 K, 4339 kPa
  thermal conductivity: 0.1178 ± 0.0043 W/m/K
371.05 K, 4340 kPa
  thermal conductivity: 0.1185 ± 0.0044 W/m/K
371.05 K, 4342 kPa
  thermal conductivity: 0.1192 ± 0.0044 W/m/K
371.05 K, 4343 kPa
  thermal conductivity: 0.1192 ± 0.0044 W/m/K
371.05 K, 4344 kPa
  thermal conductivity: 0.1192 ± 0.0044 W/m/K
371.05 K, 4345 kPa
  thermal conductivity: 0.1185 ± 0.0043 W/m/K
371.05 K, 4346 kPa
  thermal conductivity: 0.1178 ± 0.0043 W/m/K
371.05 K, 4347 kPa
  thermal conductivity: 0.1159 ± 0.0043 W/m/K
371.05 K, 4349 kPa
  thermal conductivity: 0.1121 ± 0.0041 W/m/K
371.05 K, 4351 kPa
  thermal conductivity: 0.1081 ± 0.004 W/m/K
371.05 K, 4354 kPa
  thermal conductivity: 0.1028 ± 0.0038 W/m/K
371.05 K, 4356 kPa
  thermal conductivity: 0.09934 ± 0.0037 W/m/K
371.05 K, 4358 kPa
  thermal conductivity: 0.09657 ± 0.0036 W/m/K
371.05 K, 4360 kPa
  thermal conductivity: 0.09395 ± 0.0035 W/m/K
371.05 K, 4361 kPa
  thermal conductivity: 0.09311 ± 0.0035 W/m/K
371.05 K, 4365 kPa
  thermal conductivity: 0.08989 ± 0.0034 W/m/K
371.05 K, 4367 kPa
  thermal conductivity: 0.08836 ± 0.0033 W/m/K
371.05 K, 4370 kPa
  thermal conductivity: 0.08616 ± 0.0032 W/m/K
371.05 K, 4375 kPa
  thermal conductivity: 0.08406 ± 0.0032 W/m/K
371.05 K, 4383 kPa
  thermal conductivity: 0.08141 ± 0.0031 W/m/K
371.05 K, 4387 kPa
  thermal conductivity: 0.08015 ± 0.0031 W/m/K
371.05 K, 4392 kPa
  thermal conductivity: 0.07865 ± 0.003 W/m/K
371.05 K, 4396 kPa
  thermal conductivity: 0.07776 ± 0.003 W/m/K
371.05 K, 4402 kPa
  thermal conductivity: 0.07633 ± 0.003 W/m/K
371.05 K, 4408 kPa
  thermal conductivity: 0.07494 ± 0.003 W/m/K
371.05 K, 4414 kPa
  thermal conductivity: 0.07363 ± 0.003 W/m/K
371.05 K, 4420 kPa
  thermal conductivity: 0.07231 ± 0.003 W/m/K
371.05 K, 4440 kPa
  thermal conductivity: 0.07105 ± 0.0028 W/m/K
371.05 K, 4485 kPa
  thermal conductivity: 0.06921 ± 0.0027 W/m/K
